Data published in US4983328A, “N-(4-(3-aminopropyl)aminobutyl)-2-(ω-gua nidino-fatty-acid-amido(-2-substituted-ethanamide, salt thereof, and process for preparation thereof” (Bristol-Myers Company, priority 1981, dated 1991).
≈ marks a conversion by molar mass, not a printed value.

Columns and labels:
[1] = chemical stability: retention (%) after heating at 60° C. for 4 hours, by HPLC; format: physicochemical
Description: The chemical stability of the present compound was evaluated by determining the retention (%) after heating at 60° C. for 4 hours. In Table 5 are shown the test results together with those for spergualin as reference. The retention was determined by means of high performance liquid chromatography (HPLC). The column was packed with Nucleosil® 5C18. The solvent used for spergualin was a mixture (6:94) of acetonitrile -0.01M sodium pentanesulfonate +0.01M Na2 HPO4 (pH 3), while that for the compounds of this invention was a mixture of acetonitrile -0.005M sodium pentanesulfonate ±0.01M Na2 HPO4 (pH 3). The mixture ratio in the latter case was varied for each particular compound. For instance, a mixing ratio of 10:90 was used for Compound No. 9, while that of 7:93 for Compound No. 22.

[2] = system: mouse leukemia L-1210; test: therapeutic effect on implanted cancer in mice (L-1210, survival over 30 days); format: in vivo, mouse (BDF1); details: L1210, ip, 720 h, 6 days; for responders at 1.56 mg/kg / response vs control in vivo at 1.56 mg/kg: 1.56 mg/kg/day i.p.; for responders at 3.13 mg/kg / response vs control in vivo at 3.13 mg/kg: 3.13 mg/kg/day i.p.; for responders at 6.25 mg/kg / response vs control in vivo at 6.25 mg/kg: 6.25 mg/kg/day i.p.; for responders at 12.5 mg/kg / response vs control in vivo at 12.5 mg/kg: 12.5 mg/kg/day i.p.; for responders at 25 mg/kg / response vs control in vivo at 25 mg/kg: 25 mg/kg/day i.p.
Description: BDF1 strain male mice (5 weeks old) were each inoculated intraperitoneally with 10^5 mouse leukemia L-1210 cells and treated once a day by intraperitoneal injection with a test compound dissolved in physiological saline for 6 consecutive days beginning from the day of inoculation. The mice were then observed for 30 days to determine the rate of prolongation of survival period=100×T/C=100×(average survival days of treated group)/(average survival days of control group).

[3] = system: mouse leukemia L-1210 cells; test: growth inhibitory activity to cancer cells in vitro (L-1210, 48 hours); format: cell-based; details: for inhibition at 2.5 µg/mL: L1210, 2.5 mcg/ml; for inhibition at 5 µg/mL: L1210, 5 mcg/ml; for inhibition at 10 µg/mL: L1210, 10 mcg/ml; for inhibition at 20 µg/mL: L1210, 20 mcg/ml; for IC50: L1210, L-1210 cells, read-out: 50% inhibitory concentration; for inhibition at 1.25 µg/mL: L1210, 1.25 mcg/ml; for inhibition at 40 µg/mL: L1210, 40 mcg/ml; for inhibition at 80 µg/mL: L1210, 80 mcg/ml
Description: DBA/2 mice were implanted with 10^5 mouse leukemia L-1210 cells. The ascites collected asceptically from the mice after 4 days of feeding was washed three times with physiological saline to obtain L-1210 cells, which was then suspended in RPMI 1640 culture medium [G. E. Moore, Journal of the American Medical Association, Vol. 199, 519 (1967); H. J. Morton, In Vitro, Vol. 6, 89 (1970)] to which 10% fetal calf serum and 5 μM 2-mercaptoethanol had been added, and the resulting suspension was diluted to 5×10^4 L-1210 cells per 0.9 ml. A microplate carrying 0.9 ml of the cell suspension and 0.1 ml of the culture medium containing the sample being tested was kept in a carbon dioxide incubator at 37° C. After 48 hours of cultivation, the number of cells was measured by means of a Coulter Counter (Coulter Electronics, Inc., U.S.A.) to obtain the growth inhibition (%)=(1--T/C )×100=[1-(number of grown cells in medium containing sample/(number of grown cells in control medium)]×100. The 50% growth inhibitory concentration was calculated from the values of growth inhibition at varied sample concentrations. The results of tests on typical compounds of this invention for the growth inhibition of L-1210 cells were as shown in Table 6.

[4] = acute toxicity in mice (single intraperitoneal administration); details: mouse, in vivo, ip; mice, single i.p.; read-out: LD50 (median lethal dose on single administration)
Description: (§1) In Table 8 median lethal doses (LD50) of typical compounds of this invention are shown, measured in mice upon single intraperitoneal administration, as well as maximum tolerated doses in terms of total dose when a fixed amount per unit body weight was administered intraperitoneally to mice once a day for 6 consecutive days.
*Median lethal dose on single administration.

[5] = cumulative toxicity in mice (maximum tolerated dose, once a day for 6 consecutive days); details: mouse, in vivo, ip, i.p. once a day for 6 consecutive days, total dose, read-out: Maximum Tolerated Dose (total dose not causing death)
Description: as §1
**Maximum value of the total dose not causing death when a fixed amount
per unit body weight is administered to mice once a day for 6 consecutive

[6] = read-out: Number of mice survived for 30 days (converted)
[7] = read-out: Prolongation of survival period (%), T/C × 100
[8] = read-out: Growth inhibition (%), (1-T/C) × 100

Row | Compound | remaining at 4 h ([1]; pH 2, pH 2) [%] | remaining at 4 h ([1]; pH 4, pH 4) [%] | remaining at 4 h ([1]; pH 6, pH 6) [%] | remaining at 4 h ([1]; pH 8, pH 8) [%] | remaining at 4 h ([1]; pH 9, pH 9) [%] | inhibition at 2.5 µg/mL [3, 8] [%] | inhibition at 5 µg/mL [3, 8] [%] | inhibition at 10 µg/mL [3, 8] [%] | inhibition at 20 µg/mL [3, 8] [%] | IC50 [3] [µg/mL] | LD50 [4] [mg/kg] | MTD [5] [mg/kg] | inhibition at 1.25 µg/mL [3, 8] [%] | inhibition at 40 µg/mL [3, 8] [%] | also measured
1 | COC(NC(=O)C[C@@H](O)CCCCNC(=N)N)C(=O)NCCCCNCCCN (single isomer, unassigned; (+)) [Compound 22 (+), (+)-11-O-methylspergualin] |  |  |  |  |  |  |  |  |  |  |  |  |  |  | Stability [Retention (%)] ([1]; pH 2): 79.7%; Stability [Retention (%)] ([1]; pH 4): 100%; Stability [Retention (%)] ([1]; pH 5): 100%; Stability [Retention (%)] ([1]; pH 6): 100%; Stability [Retention (%)] ([1]; pH 7): 100%; Stability [Retention (%)] ([1]; pH 8): 100%; Stability [Retention (%)] ([1]; pH 9, 240 min): 100%; Stability [Retention (%)] ([1]; pH 10, 240 min): 95.6%
2 | COC(NC(=O)C[C@@H](O)CCCCNC(=N)N)C(=O)NCCCCNCCCN (single isomer, unassigned; (-)) [22 (-), (-)-11-O-methylspergualin] | 79.7 | 100 | 100 | 100 | 97.6 |  |  |  |  |  |  |  |  |  | remaining at 4 h ([1]; pH 5, pH 5): 100%; remaining at 4 h ([1]; pH 7, pH 7): 100%; remaining at 4 h ([1]; pH 10, pH 10): 95.7%; responders at 1.56 mg/kg [2, 6]: 0%; response vs control in vivo at 1.56 mg/kg [2, 7]: 177%; responders at 3.13 mg/kg [2, 6]: 20%; response vs control in vivo at 3.13 mg/kg [2, 7]: > 290%; responders at 6.25 mg/kg [2, 6]: 80%; response vs control in vivo at 6.25 mg/kg [2, 7]: > 400%; responders at 12.5 mg/kg [2, 6]: 80%; response vs control in vivo at 12.5 mg/kg [2, 7]: > 408%; responders at 25 mg/kg [2, 6]: 100%; response vs control in vivo at 25 mg/kg [2, 7]: > 423%
3 | N=C(N)NCCCC[C@H](O)CC(=O)NC(O)C(=O)NCCCCNCCCN (single isomer, unassigned; (-)) [(-)-spergualin, reference compound] | 88.1 | 87.8 | 46.5 | 6.1 | 0 |  |  |  |  |  |  |  |  |  | remaining at 4 h ([1]; pH 3, pH 3): 88%; remaining at 4 h ([1]; pH 5, pH 5): 82.5%; remaining at 4 h ([1]; pH 7, pH 7): 12.6%
4 | COC(NC(=O)CCCCCCNC(=N)N)C(=O)NCCCCNCCCN (single isomer, unassigned; (-)) [Compound 9 (-), (-)-N-[4-(3-aminopropyl)aminobutyl]-2-(7-guanidinoheptanamido)-2-methoxyethanamide] |  |  |  |  |  |  |  |  |  |  |  |  |  |  | responders at 0.1 mg/kg ([2]; 0.10 mg/kg/day i.p., read-out: Number of mice survived for 30 days): 0%; response vs control in vivo at 0.1 mg/kg ([2]; 0.10 mg/kg/day i.p., read-out: Prolongation of survival period (%), T/C × 100): 110%; responders at 0.2 mg/kg ([2]; 0.20 mg/kg/day i.p., read-out: Number of mice survived for 30 days (converted)): 0%; response vs control in vivo at 0.2 mg/kg ([2]; 0.20 mg/kg/day i.p., read-out: Prolongation of survival period (%), T/C × 100): 127%; responders at 0.39 mg/kg ([2]; 0.39 mg/kg/day i.p., read-out: Number of mice survived for 30 days (converted)): 50%; response vs control in vivo at 0.39 mg/kg ([2]; 0.39 mg/kg/day i.p., read-out: Prolongation of survival period (%), T/C × 100): > 342%; responders at 0.78 mg/kg ([2]; 0.78 mg/kg/day i.p., read-out: Number of mice survived for 30 days (converted)): 50%; response vs control in vivo at 0.78 mg/kg ([2]; 0.78 mg/kg/day i.p., read-out: Prolongation of survival period (%), T/C × 100): > 370%; responders at 1.56 mg/kg [2, 6]: 50%; response vs control in vivo at 1.56 mg/kg [2, 7]: > 356%; responders at 3.13 mg/kg [2, 6]: 75%; response vs control in vivo at 3.13 mg/kg [2, 7]: > 411%; responders at 6.25 mg/kg [2, 6]: 25%; response vs control in vivo at 6.25 mg/kg [2, 7]: > 336%; responders at 12.5 mg/kg [2, 6]: 50%; response vs control in vivo at 12.5 mg/kg [2, 7]: > 390%; responders at 25 mg/kg [2, 6]: 0%; response vs control in vivo at 25 mg/kg [2, 7]: 0%
5 | N=C(N)NCCCC(=O)NC(O)C(=O)NCCCCNCCCN (centres unmarked) [Compound 1, N-[4-(3-aminopropyl)aminobutyl]-2-(4-guanidinobutanamido)-2-hydroxyethanamide] |  |  |  |  |  | 52.2 | 89.3 | 101 | 100 | 2.4 (≈ 6.95 µM) | > 50 | > 300 |  |  | 
6 | N=C(N)NCCCCC(=O)NC(O)C(=O)NCCCCNCCCN (centres unmarked) [Compound 2, N-[4-(3-aminopropyl)aminobutyl]-2-(5-guanidinopentanamido)-2-hydroxyethanamide] |  |  |  |  |  | 30.5 | 46.9 | 69.5 | 77.6 | 5 (≈ 13.9 µM) | > 50 | > 300 | 9.6 | 79.6 | inhibition at 80 µg/mL [3, 8]: 79.6%
7 | N=C(N)NCCCCCC(=O)NC(O)C(=O)NCCCCNCCCN (centres unmarked) [Compound 3, N-[4-(3-aminopropyl)aminobutyl]-2-(6-guanidinohexanamido)-2-hydroxyethanamide] |  |  |  |  |  | 36.7 | 64.2 | 81.6 | 86.7 | 3.7 (≈ 9.91 µM) | > 50 | > 300 | 20.6 |  | 
8 | COC(NC(=O)CCCNC(=N)N)C(=O)NCCCCNCCCN (centres unmarked) [Compound 7, N-[4-(3-aminopropyl)aminobutyl]-2-(4-guanidinobutanamido)-2-methoxyethanamide] |  |  |  |  |  | 80.7 | 98.5 | 99.8 | 99.9 | 1.5 (≈ 4.17 µM) |  |  | 38.7 | 99.3 | 
9 | COC(NC(=O)CCCCCNC(=N)N)C(=O)NCCCCNCCCN (centres unmarked) [Compound 8, N-[4-(3-aminopropyl)aminobutyl]-2-(6-guanidinohexanamido)-2-methoxyethanamide] |  |  |  |  |  |  | 33.2 | 38.1 | 46.8 | 28 (≈ 72.3 µM) | 25 to 50 | > 150 |  | 53.5 | inhibition at 80 µg/mL [3, 8]: 66.3%; inhibition at 160 µg/mL ([3]; L1210, 160 mcg/ml, read-out: Growth inhibition (%), (1-T/C) × 100): 88.2%
10 | CCCCOC(NC(=O)CCCCCCNC(=N)N)C(=O)NCCCCNCCCN (centres unmarked) [Compound 13, N-[4-(3-aminopropyl)aminobutyl]-2-(7-guanidinoheptanamido)-2-butoxyethanamide] | 72.4 | 100 | 100 | 100 | 98 | 21.3 | 24 | 33.2 | 65.7 | 14 (≈ 31.6 µM) |  |  | 17 | 72.5 | remaining at 4 h ([1]; pH 3, pH 3): 90.1%; remaining at 4 h ([1]; pH 10, pH 10): 96%
